From patent US20020040052A1, “Method for neurite outgrowth” (priority 2000, published 2002)

Tested on: PC12 cells derived from adrenal medulla pheochromocytoma of rats
Assay: Neurite extension of PC12 cells: percentage of cells with extended neurites after culturing for 3 days
Assay type: cell-based, rat
Description: Next, PC12 cells derived from adrenal medulla pheochromocytoma of rats were seeded in a serum-free DMEM/F12 medium containing 5 μg/ml of transferrin, 5 μg/ml of insulin and 20 nM of progesterone (GIBCO Corp., hereinafter, referred to as “DMEM-TIP medium”) at 2.0×10^4 cells/well (flat-bottomed 24 well collagen coated plate, manufactured by IWAKI). Then, the cells were cultured overnight at 37° C. under 5% CO2. […]
After culturing for 3 days, for each well of the plate, microscopic observation was conducted with respect to the cells at 200 times magnification. The percentage of the cells with extended neurites (cells that have neurites longer than their diameter) to the total of more than 200 cells was calculated.

SMILES	Ratio of the cells with extended neurites (10 μM in DMEM-TIP medium) [%]	Relative value of the ratio of the cells with extended neurites to control (Com. Ex. 1) (10 μM in DMEM-TIP medium)	Ratio of the cells with extended neurites (50 μM in DMEM-TIP medium) [%]	Relative value of the ratio of the cells with extended neurites to control (Com. Ex. 1) (50 μM in DMEM-TIP medium)	Ratio of the cells with extended neurites (100 μM in DMEM-TIP medium) [%]	Relative value of the ratio of the cells with extended neurites to control (Com. Ex. 1) (100 μM in DMEM-TIP medium)
COc1ccc(-c2cc(=O)c3c(OC)c(OC)c(OC)c(OC)c3o2)cc1OC [nobiletin]	8.7	2.5	16.6	4.7	42.8	12.2
COc1ccc(-c2cc(=O)c3c(OC)c(OC)c(OC)c(OC)c3o2)cc1 [tangeretin]	4.8	1.4	–	–	12.2	3.5
